# From US9625458B2, “Biosensor” (priority 2002, dated 2017)
# How the values were obtained:
# [1] = molecular target: T1, E. coli dipeptide binding protein (DPP), fluorophore-conjugated cysteine mutants (Escherichia coli, UniProt P23847); experiment: Ligand affinity of dipeptide BP fluorescent conjugates (Kd range); details: range over conjugates, n=21
# T1 construct: several single-Cys mutants (e.g. K394C) with fluorophore
# Source text: (§1) Molecular Cloning. […] Amplified products were cloned into one of the protein expression vectors pAED4 (Doering, “Functional and structural studies of a small f-actin binding domain” in Ph.D. thesis, Massachusetts Institute of Technology, 1992); pKK223-3 (Brosius & Holy, Proc. Natl. Acad. Sci. USA 81:6929-6933, 1984); or pET vectors (Studier et al., Meth. Enzymol. 185:60-89, 1990) (Novagen). N-terminal oligonucleotide primers were designed to clone only the processed periplasmic form, deleting the signal sequence. The C-terminal primer was designed to append the sequence Gly-Ser-Gly-(His)n or Gly-Ser-(His)n, where n=5, 6, or 10. Two tandem stop codons (TAATGA) follow the last His codon. […] Additionally the sequence of Fe(III) BP was mutated by substitution of Glu57 with Asp to raise the Kd to a concentration range conveniently measured using Fe(III) citrate.
# (§2) Fluorophore conjugation to cysteine-substituted bPBPs. […] The efficiency of reporter group attachment was assessed by determination of unreacted thiol with Ellman's reagent (Ellman, Arch. Biochem. Biophys. 74:443-450, 1958) or by measuring the ratio of fluorophore to protein from absorbance spectra of the purified conjugate.
# (§3) Fluorimetry. […] Fluorescence emission spectra were acquired with excitation and emission slit widths of 4 and 8 nm, respectively. […]
# [2] = molecular target: T2, E. coli dipeptide binding protein variant R141C, fluorophore conjugate (Escherichia coli, UniProt P23847, R169C); experiment: Fluorimetric titration of fluorophore conjugates; details: peristeric site
# T2 construct: initiator methionine (N); Gly-Ser-Gly-(His)n or Gly-Ser-(His)n (n = 5, 6 or 10) (C); made in house; host or cells: E. coli BL21-DE3
# T2 sequence (P23847 29-535 R169C): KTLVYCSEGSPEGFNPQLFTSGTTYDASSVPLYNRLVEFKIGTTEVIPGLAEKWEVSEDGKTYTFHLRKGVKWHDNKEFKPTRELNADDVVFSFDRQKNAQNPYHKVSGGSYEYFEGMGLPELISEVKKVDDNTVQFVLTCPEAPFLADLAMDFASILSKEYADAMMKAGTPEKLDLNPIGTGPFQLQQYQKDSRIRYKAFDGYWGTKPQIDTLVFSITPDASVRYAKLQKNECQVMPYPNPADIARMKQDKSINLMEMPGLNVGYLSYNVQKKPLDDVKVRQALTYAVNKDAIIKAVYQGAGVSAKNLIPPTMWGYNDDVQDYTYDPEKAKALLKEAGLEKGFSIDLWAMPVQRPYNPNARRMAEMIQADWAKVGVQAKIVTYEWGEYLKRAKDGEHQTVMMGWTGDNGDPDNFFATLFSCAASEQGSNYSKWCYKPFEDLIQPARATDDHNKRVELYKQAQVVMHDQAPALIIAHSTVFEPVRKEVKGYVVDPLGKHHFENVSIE
# Source text: (§4) Molecular Cloning. […] Amplified products were cloned into one of the protein expression vectors pAED4 (Doering, “Functional and structural studies of a small f-actin binding domain” in Ph.D. thesis, Massachusetts Institute of Technology, 1992); pKK223-3 (Brosius & Holy, Proc. Natl. Acad. Sci. USA 81:6929-6933, 1984); or pET vectors (Studier et al., Meth. Enzymol. 185:60-89, 1990) (Novagen). N-terminal oligonucleotide primers were designed to clone only the processed periplasmic form, deleting the signal sequence. The C-terminal primer was designed to append the sequence Gly-Ser-Gly-(His)n or Gly-Ser-(His)n, where n=5, 6, or 10. Two tandem stop codons (TAATGA) follow the last His codon. […] Single amino acid substitutions were generated by overlapping PCR mutagenesis (Ho et al., Gene 77:51-59, 1989). All clones and mutations were confirmed by nucleotide sequencing. In the case of arabinose BP, the single cysteine in the wild type sequence was replaced by alanine to eliminate the possibility of reporter group conjugation to this thiol (Miller et al., J. Biol. Chem. 254:7521-7528, 1979). Additionally the sequence of Fe(III) BP was mutated by substitution of Glu57 with Asp to raise the Kd to a concentration range conveniently measured using Fe(III) citrate.
# (§5) Fluorophore conjugation to cysteine-substituted bPBPs. Thiol-reactive fluorophores obtained from Molecular Probes (Eugene, Oreg.) were 5-iodoacetamidofluorescein (fluorescein); N-(1-pyrene) iodoacetamide (pyrene); N,N′-dimethyl-N-(iodoacetyl)-N′-(7-nitrobenz-2-oxa-1,3-diazol-4-yl)ethylenediamide (NBD); N-((2-(iodoacetoxy)ethyl)-N-methyl)amino-7-nitrobenz-2-oxa-1,3-diazole (NBDE); and 6-acryloyl-2-dimethylaminonaphthalene (acrylodan). The styryl and naphthyl dyes JPW4039, JPW4042, and JPW4045 (FIG. 3) were synthesized at the University of Connecticut. All fluorophore conjugation steps were typically carried out at room temperature. To protein at a concentration of 100 μM was added tris-(2-carboxyethyl)phosphine HCl to a five-fold molar excess to reduce intermolecular disulfide bonds. A thiol-reactive fluorophore (20 to 25 mM in acetonitrile or dimethyl sulfoxide) was added in small aliquots to a five-fold molar excess over protein. Conjugation proceeded in the dark at room temperature for 4 hours, or overnight at 4° C. Separation of protein from unreacted fluorophore was achieved by exhaustive dialysis or by size-exclusion chromatography. The efficiency of reporter group attachment was assessed by determination of unreacted thiol with Ellman's reagent (Ellman, Arch. Biochem. Biophys. 74:443-450, 1958) or by measuring the ratio of fluorophore to protein from absorbance spectra of the purified conjugate.
# (§6) Fluorimetry. All measurements were conducted with an SLM Aminco-Bowman series 2 fluorimeter, with sample stirring at 25° C. Fluorescence emission spectra were acquired with excitation and emission slit widths of 4 and 8 nm, respectively. Photomultiplier tube potential was maintained between 400 and 800 volts. Protein concentrations were in the range of 50 to 1000 nM. Fluorophore-specific excitation was at the following approximate wavelengths: tryptophan, 290 nm; acrylodan, 390 nm; fluorescein, 485 nm; pyrene, 340 nm; NBD and NBDE, 490 nm; JPW4039, 485 nm; JPW4042, 470 nm; JPW4045, 470 nm.
# (§7) Corrections were made for dilution of the protein and for background signal from buffer. Binding curves were fit to binding isotherms using equation 3 or 4, as appropriate.
# (§8) Analyte affinity measurements. […] The emission wavelength monitored was that of maximum difference in intensity between the ligand-free and bound states. For each conjugate, fluorescence intensiometric observations were fit to a hyperbolic binding isotherm for a two-state model (Marvin et al., Proc. Natl. Acad. Sci. USA 94:4366-4371, 1997): […]
# [3] = molecular target: T3, E. coli dipeptide binding protein variant T44C, fluorophore conjugate (Escherichia coli, UniProt P23847, T72C); experiment: Fluorimetric titration of fluorophore conjugates; details: peristeric site
# T3 construct: initiation methionine (N); Gly-Ser-Gly-(His)n or Gly-Ser-(His)n (C); made in house; host or cells: E. coli BL21-DE3
# T3 sequence (P23847 29-535 T72C): as the sequence (P23847 29-535 R169C) above, with T44C, C141R counted along it
# Source text: as §4, §5, §6, §7, §8
# [4] = molecular target: T4, E. coli dipeptide binding protein variant K394C, fluorophore conjugate (Escherichia coli, UniProt P23847, K422C); experiment: Fluorimetric titration of fluorophore conjugates
# T4 construct: initiator methionine (N); Gly-Ser-Gly-(His)n or Gly-Ser-(His)n (n = 5, 6 or 10) (C); made in house; host or cells: E. coli BL21-DE3
# T4 sequence (P23847 29-535 K422C): as the sequence (P23847 29-535 R169C) above, with C141R, K394C counted along it
# Source text: as §4, §5, §6, §7, §8
# [5] = molecular target: T5, E. coli dipeptide binding protein variant S111C, fluorophore conjugate (Escherichia coli, UniProt P23847, S139C); experiment: Fluorimetric titration of fluorophore conjugates; details: peristeric site
# T5 construct: initiator methionine (N); Gly-Ser-Gly-(His)n or Gly-Ser-(His)n (n = 5, 6 or 10) (C); made in house; host or cells: E. coli BL21-DE3
# T5 sequence (P23847 29-535 S139C): as the sequence (P23847 29-535 R169C) above, with S111C, C141R counted along it
# Source text: as §4, §5, §6, §7, §8
# [6] = molecular target: T6, E. coli dipeptide binding protein variant D450C, fluorophore conjugate (Escherichia coli, UniProt P23847, D478C); experiment: Fluorimetric titration of fluorophore conjugates; details: peristeric site
# T6 construct: initiator methionine (N); Gly-Ser-Gly-(His)n or Gly-Ser-(His)n (n = 5, 6 or 10) (C); made in house; host or cells: E. coli BL21-DE3
# T6 sequence (P23847 29-535 D478C): as the sequence (P23847 29-535 R169C) above, with C141R, D450C counted along it
# Source text: as §4, §5, §6, §7, §8
# [7] = molecular target: T7, E. coli dipeptide binding protein variant W315C, fluorophore conjugate (Escherichia coli, UniProt P23847, W343C); experiment: Fluorimetric titration of fluorophore conjugates; details: peristeric site
# T7 construct: initiation methionine (N); Gly-Ser-Gly-(His)n or Gly-Ser-(His)n (C); made in house; host or cells: E. coli BL21-DE3
# T7 sequence (P23847 29-535 W343C): as the sequence (P23847 29-535 R169C) above, with C141R, W315C counted along it
# Source text: as §4, §5, §6, §7, §8
# [8] = molecular target: T8, E. coli ribose binding protein (RBP), fluorophore-conjugated cysteine mutants (Escherichia coli, UniProt P02925); experiment: Ligand affinity of ribose BP fluorescent conjugates (Kd range); details: range over conjugates, n=14
# T8 construct: single-Cys mutants (e.g. T135C, E192C) with fluorophores
# T8 sequence (P02925 26-296, stated change not applied): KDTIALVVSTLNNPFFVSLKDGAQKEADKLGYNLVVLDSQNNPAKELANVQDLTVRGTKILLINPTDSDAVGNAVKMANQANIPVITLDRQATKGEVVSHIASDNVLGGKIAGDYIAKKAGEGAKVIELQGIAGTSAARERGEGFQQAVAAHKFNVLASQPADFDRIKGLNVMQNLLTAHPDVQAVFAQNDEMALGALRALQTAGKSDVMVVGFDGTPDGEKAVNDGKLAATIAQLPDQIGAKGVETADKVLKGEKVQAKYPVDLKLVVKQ
# Source text: as §1, §2, §3
# [9] = molecular target: T9, E. coli ribose binding protein variant A234C, fluorophore conjugate (Escherichia coli, UniProt P02925, A259C); experiment: Fluorimetric titration of fluorophore conjugates; details: ligand ribose
# T9 construct: Gly-Ser-Gly-(His)n or Gly-Ser-(His)n, n=5, 6 or 10 (C); initiator methionine (N); made in house; host or cells: E. coli strain BL21-DE3
# T9 sequence (P02925 26-296 A259C): as the sequence (P02925 26-296, stated change not applied) above, with A234C counted along it
# Source text: as §4, §5, §6, §7, §8
# [10] = molecular target: T10, E. coli ribose binding protein variant L236C, fluorophore conjugate (Escherichia coli, UniProt P02925, L261C); experiment: Fluorimetric titration of fluorophore conjugates; details: ligand ribose
# T10 construct: Gly-Ser-Gly-(His)n or Gly-Ser-(His)n, n=5, 6 or 10 (C); initiator methionine (N); made in house; host or cells: E. coli strain BL21-DE3
# T10 sequence (P02925 26-296 L261C): as the sequence (P02925 26-296, stated change not applied) above, with L236C counted along it
# Source text: as §4, §5, §6, §7, §8
# [11] = molecular target: T11, E. coli ribose binding protein variant E192C, fluorophore conjugate (Escherichia coli, UniProt P02925, E217C); experiment: Fluorimetric titration of fluorophore conjugates
# T11 construct: Gly-Ser-Gly-(His)n or Gly-Ser-(His)n, n=5, 6 or 10 (C); initiator methionine (N); made in house; host or cells: E. coli strain BL21-DE3
# T11 sequence (P02925 26-296 E217C): as the sequence (P02925 26-296, stated change not applied) above, with E192C counted along it
# Source text: as §4, §5, §6, §7, §8
# [12] = molecular target: T12, E. coli ribose binding protein variant L265C, fluorophore conjugate (Escherichia coli, UniProt P02925, L290C); experiment: Fluorimetric titration of fluorophore conjugates
# T12 construct: Gly-Ser-Gly-(His)n or Gly-Ser-(His)n, n=5, 6 or 10 (C); initiator methionine (N); made in house; host or cells: E. coli strain BL21-DE3
# T12 sequence (P02925 26-296 L290C): as the sequence (P02925 26-296, stated change not applied) above, with L265C counted along it
# Source text: as §4, §5, §6, §7, §8
# T1 sequence (P23847 29-535, stated change not applied): as the sequence (P23847 29-535 R169C) above, with C141R counted along it
compound,measurement,setting,value
"CC(C)C[C@H](NC(=O)CN)C(=O)O [Gly-Leu, Gly-Leu dipeptide]",range of Kd,[1],6 to 93000 nM
same,Kd,[2]; Acrylodan conjugate,2.3 µM
same,Kd,[2]; Fluorescein conjugate,38 µM
same,Kd,[3]; Fluorescein conjugate,640 nM
same,Kd,[3]; NBD conjugate,6 nM
same,Kd,"[4]; Kd, Acrylodan conjugate, peristeric site",23 µM
same,Kd,"[4]; Kd, Fluorescein conjugate, peristeric site",93 µM
same,Kd,"[4]; Kd, JPW4039 conjugate, peristeric site",30 µM
same,Kd,"[4]; Kd, JPW4042 conjugate, peristeric site",78 µM
same,Kd,"[4]; Kd, NBD conjugate, peristeric site",0.012 µM
same,Kd,"[4]; affinity for Gly-Leu dipeptide (Kd), K394C-NBD conjugate",0.006 µM
same,Kd,"[4]; affinity for Gly-Leu dipeptide (Kd), K394C-fluorescein conjugate",93 µM
same,Kd,[5]; Acrylodan conjugate,4.8 µM
same,Kd,[5]; Fluorescein conjugate,2.6 µM
same,Kd,[5]; JPW4039 conjugate,34 µM
same,Kd,[5]; JPW4042 conjugate,15.8 µM
same,Kd,[6]; Acrylodan conjugate,11000 nM
same,Kd,[6]; JPW4039 conjugate,910 nM
same,Kd,[6]; JPW4042 conjugate,1500 nM
same,Kd,[6]; JPW4045 conjugate,2000 nM
same,Kd,[7]; Acrylodan conjugate,130 nM
same,Kd,[7]; JPW4039 conjugate,1000 nM
same,Kd,[7]; JPW4045 conjugate,3200 nM
same,Kd,[7]; NBD conjugate,60 nM
OC1OC[C@@H](O)[C@@H](O)[C@H]1O (stereo partly shown) [ribose],range of Kd,[8],0.1 to 2090 µM
same,Kd,[9]; JPW4039 conjugate,1840 nM
same,Kd,[9]; JPW4045 conjugate,3760 nM
same,Kd,[9]; NBD conjugate,735 nM
same,Kd,[10]; JPW4042 conjugate,620 nM
same,Kd,[10]; JPW4045 conjugate,1530 nM
same,Kd,[10]; NBD conjugate,100 nM
same,Kd,"[11]; Kd, Fluorescein conjugate, E192C, ligand ribose",11.4 µM
same,Kd,"[11]; Kd, JPW4039 conjugate, E192C, ligand ribose",2.57 µM
same,Kd,"[11]; Kd, JPW4042 conjugate, E192C, ligand ribose",5.03 µM
same,Kd,"[11]; Kd, JPW4045 conjugate, E192C, ligand ribose",15 µM
same,Kd,"[11]; Kd, NBD conjugate, E192C, ligand ribose",2.6 µM
same,Kd,"[11]; affinity for ribose (Kd), E192C-JPW4039 conjugate",2.6 µM
same,Kd,"[11]; affinity for ribose (Kd), E192C-JPW4045 conjugate",15 µM
same,Kd,"[11]; affinity for ribose (Kd), E192C-NBD conjugate",2.6 µM
same,Kd,[12],260 nM
